Results: the supplement of paper PMC8612539
Values after ≈ are worked out from the molar mass of the structure shown.

Test system: Escherichia coli
Assay: minimum inhibitory concentration (MIC)
Description: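 Broth microdilution MIC (Sensititre BOPO7F bovine plate, CLSI methods) of 19 antimicrobials against field isolates of P. multocida, M. haemolytica, H. somni (deep nasopharyngeal swabs) and E. coli, Enterococcus spp. (rectal swabs) from weaned dairy heifers. Incubation 16-24 h at 35 C. MIC is the lowest concentration preventing visible growth. Values with <= or > lie at the tested range limits. Trimethoprim-sulfamethoxazole is given as the trimethoprim component of a 1:19 mixture.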

CC1(C)S[C@@H]2[C@H](NC(=O)Cc3ccccc3)C(=O)N2[C@H]1C(=O)O [Penicillin]
Conditions	minimum inhibitory concentration [µg/mL]
isolate (source animal id): 8	> 8
isolate (source animal id): 9	> 8
isolate (source animal id): 10	> 8
isolate (source animal id): 11	> 8
isolate (source animal id): 12	> 8
isolate (source animal id): 13	> 8
isolate (source animal id): 14	> 8
isolate (source animal id): 15	> 8
isolate (source animal id): 16	> 8
isolate (source animal id): 98	> 8
isolate (source animal id): 99	> 8
isolate (source animal id): 100	> 8
isolate (source animal id): 101	4 (≈ 12 µM)
isolate (source animal id): 102	> 8
isolate (source animal id): 103	> 8
isolate (source animal id): 104	> 8
isolate (source animal id): 105	> 8
isolate (source animal id): 106	> 8
isolate (source animal id): 107	> 8
isolate (source animal id): 108	> 8
isolate (source animal id): 109	> 8
isolate (source animal id): 110	> 8
isolate (source animal id): 111	> 8
isolate (source animal id): 112	> 8
isolate (source animal id): 113	> 8
isolate (source animal id): 114	> 8
isolate (source animal id): 115	> 8
isolate (source animal id): 116	> 8
isolate (source animal id): 117	> 8
isolate (source animal id): 118	> 8
isolate (source animal id): 119	> 8
isolate (source animal id): 120	> 8
isolate (source animal id): 121	> 8
isolate (source animal id): 122	8 (≈ 23.9 µM)
isolate (source animal id): 123	> 8
isolate (source animal id): 124	> 8
isolate (source animal id): 125	> 8
isolate (source animal id): 126	> 8
isolate (source animal id): 127	> 8
isolate (source animal id): 128	> 8
isolate (source animal id): 129	> 8
isolate (source animal id): 130	> 8
isolate (source animal id): 131	> 8
isolate (source animal id): 132	> 8
isolate (source animal id): 133	> 8
isolate (source animal id): 134	> 8
isolate (source animal id): 135	> 8
isolate (source animal id): 136	> 8
isolate (source animal id): 137	> 8
isolate (source animal id): 138	> 8
isolate (source animal id): 139	8 (≈ 23.9 µM)
isolate (source animal id): 140	> 8
isolate (source animal id): 141	> 8
isolate (source animal id): 142	> 8
isolate (source animal id): 143	> 8
isolate (source animal id): 144	> 8
isolate (source animal id): 145	> 8
isolate (source animal id): 146	> 8
isolate (source animal id): 147	> 8
isolate (source animal id): 148	> 8
isolate (source animal id): 149	> 8
isolate (source animal id): 150	> 8
isolate (source animal id): 151	8 (≈ 23.9 µM)
isolate (source animal id): 152	> 8
isolate (source animal id): 153	> 8
isolate (source animal id): 154	> 8
isolate (source animal id): 155	> 8
isolate (source animal id): 156	> 8
isolate (source animal id): 157	> 8
isolate (source animal id): 158	> 8
isolate (source animal id): 159	> 8
isolate (source animal id): 160	> 8
isolate (source animal id): 161	> 8
isolate (source animal id): 162	> 8
isolate (source animal id): 163	> 8
isolate (source animal id): 164	> 8
isolate (source animal id): 165	> 8
isolate (source animal id): 166	> 8
isolate (source animal id): 167	> 8
isolate (source animal id): 168	> 8
isolate (source animal id): 169	> 8
isolate (source animal id): 170	> 8
isolate (source animal id): 171	> 8
isolate (source animal id): 172	> 8
isolate (source animal id): 173	> 8
isolate (source animal id): 174	> 8
isolate (source animal id): 175	> 8
isolate (source animal id): 176	> 8
isolate (source animal id): 177	> 8
isolate (source animal id): 178	> 8
isolate (source animal id): 179	> 8
isolate (source animal id): 180	> 8
isolate (source animal id): 181	> 8
isolate (source animal id): 182	> 8
isolate (source animal id): 183	> 8
isolate (source animal id): 184	> 8
isolate (source animal id): 185	> 8
isolate (source animal id): 186	> 8
isolate (source animal id): 187	> 8
isolate (source animal id): 188	> 8

CC1(C)S[C@@H]2[C@H](NC(=O)[C@H](N)c3ccccc3)C(=O)N2[C@H]1C(=O)O [Ampicillin]
Conditions	minimum inhibitory concentration [µg/mL]
isolate (source animal id): 8	4 (≈ 11.4 µM)
isolate (source animal id): 9	> 16
isolate (source animal id): 10	2 (≈ 5.72 µM)
isolate (source animal id): 11	4 (≈ 11.4 µM)
isolate (source animal id): 12	> 16
isolate (source animal id): 13	> 16
isolate (source animal id): 14	> 16
isolate (source animal id): 15	2 (≈ 5.72 µM)
isolate (source animal id): 16	4 (≈ 11.4 µM)
isolate (source animal id): 98	4 (≈ 11.4 µM)
isolate (source animal id): 99	4 (≈ 11.4 µM)
isolate (source animal id): 100	2 (≈ 5.72 µM)
isolate (source animal id): 101	1 (≈ 2.86 µM)
isolate (source animal id): 102	2 (≈ 5.72 µM)
isolate (source animal id): 103	> 16
isolate (source animal id): 104	4 (≈ 11.4 µM)
isolate (source animal id): 105	4 (≈ 11.4 µM)
isolate (source animal id): 106	2 (≈ 5.72 µM)
isolate (source animal id): 107	2 (≈ 5.72 µM)
isolate (source animal id): 108	4 (≈ 11.4 µM)
isolate (source animal id): 109	2 (≈ 5.72 µM)
isolate (source animal id): 110	4 (≈ 11.4 µM)
isolate (source animal id): 111	2 (≈ 5.72 µM)
isolate (source animal id): 112	2 (≈ 5.72 µM)
isolate (source animal id): 113	4 (≈ 11.4 µM)
isolate (source animal id): 114	4 (≈ 11.4 µM)
isolate (source animal id): 115	> 16
isolate (source animal id): 116	2 (≈ 5.72 µM)
isolate (source animal id): 117	2 (≈ 5.72 µM)
isolate (source animal id): 118	4 (≈ 11.4 µM)
isolate (source animal id): 119	8 (≈ 22.9 µM)
isolate (source animal id): 120	> 16
isolate (source animal id): 121	2 (≈ 5.72 µM)
isolate (source animal id): 122	1 (≈ 2.86 µM)
isolate (source animal id): 123	2 (≈ 5.72 µM)
isolate (source animal id): 124	4 (≈ 11.4 µM)
isolate (source animal id): 125	2 (≈ 5.72 µM)
isolate (source animal id): 126	8 (≈ 22.9 µM)
isolate (source animal id): 127	2 (≈ 5.72 µM)
isolate (source animal id): 128	> 16
isolate (source animal id): 129	4 (≈ 11.4 µM)
isolate (source animal id): 130	4 (≈ 11.4 µM)
isolate (source animal id): 131	2 (≈ 5.72 µM)
isolate (source animal id): 132	> 16
isolate (source animal id): 133	4 (≈ 11.4 µM)
isolate (source animal id): 134	4 (≈ 11.4 µM)
isolate (source animal id): 135	2 (≈ 5.72 µM)
isolate (source animal id): 136	4 (≈ 11.4 µM)
isolate (source animal id): 137	4 (≈ 11.4 µM)
isolate (source animal id): 138	4 (≈ 11.4 µM)
isolate (source animal id): 139	1 (≈ 2.86 µM)
isolate (source animal id): 140	4 (≈ 11.4 µM)
isolate (source animal id): 141	4 (≈ 11.4 µM)
isolate (source animal id): 142	4 (≈ 11.4 µM)
isolate (source animal id): 143	> 16
isolate (source animal id): 144	> 16
isolate (source animal id): 145	8 (≈ 22.9 µM)
isolate (source animal id): 146	2 (≈ 5.72 µM)
isolate (source animal id): 147	> 16
isolate (source animal id): 148	2 (≈ 5.72 µM)
isolate (source animal id): 149	2 (≈ 5.72 µM)
isolate (source animal id): 150	4 (≈ 11.4 µM)
isolate (source animal id): 151	1 (≈ 2.86 µM)
isolate (source animal id): 152	2 (≈ 5.72 µM)
isolate (source animal id): 153	> 16
isolate (source animal id): 154	4 (≈ 11.4 µM)
isolate (source animal id): 155	2 (≈ 5.72 µM)
isolate (source animal id): 156	> 16
isolate (source animal id): 157	4 (≈ 11.4 µM)
isolate (source animal id): 158	4 (≈ 11.4 µM)
isolate (source animal id): 159	2 (≈ 5.72 µM)
isolate (source animal id): 160	4 (≈ 11.4 µM)
isolate (source animal id): 161	2 (≈ 5.72 µM)
isolate (source animal id): 162	> 16
isolate (source animal id): 163	4 (≈ 11.4 µM)
isolate (source animal id): 164	4 (≈ 11.4 µM)
isolate (source animal id): 165	2 (≈ 5.72 µM)
isolate (source animal id): 166	2 (≈ 5.72 µM)
isolate (source animal id): 167	4 (≈ 11.4 µM)
isolate (source animal id): 168	2 (≈ 5.72 µM)
isolate (source animal id): 169	4 (≈ 11.4 µM)
isolate (source animal id): 170	4 (≈ 11.4 µM)
isolate (source animal id): 171	4 (≈ 11.4 µM)
isolate (source animal id): 172	2 (≈ 5.72 µM)
isolate (source animal id): 173	> 16
isolate (source animal id): 174	> 16
isolate (source animal id): 175	4 (≈ 11.4 µM)
isolate (source animal id): 176	> 16
isolate (source animal id): 177	> 16
isolate (source animal id): 178	4 (≈ 11.4 µM)
isolate (source animal id): 179	4 (≈ 11.4 µM)
isolate (source animal id): 180	4 (≈ 11.4 µM)
isolate (source animal id): 181	2 (≈ 5.72 µM)
isolate (source animal id): 182	2 (≈ 5.72 µM)
isolate (source animal id): 183	4 (≈ 11.4 µM)
isolate (source animal id): 184	4 (≈ 11.4 µM)
isolate (source animal id): 185	4 (≈ 11.4 µM)
isolate (source animal id): 186	4 (≈ 11.4 µM)
isolate (source animal id): 187	> 16
isolate (source animal id): 188	> 16
